Measurements taken from patent US9211310B2, “Use of a Chinese medicine composition in preparing medicaments for treating secondary prevention of myocardial infarction” (TASLY PHARMACEUTICAL GROUP CO., LTD, priority 2010, dated 2015).

Test system: patients after acute myocardial infarction
Test: Life quality, Seattle Angina Questionnaire (SAQ), same clinical trial
Assay type: in vivo, human
Conditions: FAS; 6 months after treatment
Source text: 3508 patients who were in accordance with the diagnostic standards of AMI for 28 days to 2 years and differentiated as Qi deficiency and blood stagnation syndrome by TCM were studied. 0.5 g Chinese medicine composition prepared by the method of EXAMPLE 1 (Coded as QSYQ) was administrated half an hour after meal, 3 times per day.
There were 19 questions in the Seattle angina questionnaire (SAQ), including 5 parts: physical limitation (PL), anginal stability (AS), anginal frequency (AF), treatment satisfaction (TS) and disease perception (DP). After being given necessary explanation by doctors, the questions were answered independently by patients.
They included the overall survival time, angina pectoris score, TCM symptom score and life quality score, where angina pectoris score, TCM symptom score and life quality score were evaluated at randomization, in 1st, 3rd, 6th, 9th, 12th month after treatment and 18th month after follow-up.
All evaluation results of SAQ were described during the period of observation, and Wilcoxon rank sum test was used for inter-group comparison.
The evaluation results in the SAQ were depicted in different observations, and inter-group comparison was tested by Wilcoxon Rank-sum test.

Structure (SMILES): CC(=O)Oc1ccccc1C(=O)O [Control group, aspirine]
- SAQ 4th question, 1-3 times per day: number of patients: 82
- SAQ 4th question, <1 time per week: % of patients: (11.98%)
- SAQ 4th question, <1 time per week: number of patients: 209
- SAQ 4th question, Not used: % of patients: (58.37%)
- SAQ 4th question, Not used: number of patients: 1018
- SAQ 4th question, ≧3 times per week: % of patients: (7.28%)
- SAQ 4th question, ≧3 times per week: number of patients: 127
- SAQ 4th question, ≧4 times per day: % of patients: (0.11%)
- SAQ 4th question, ≧4 times per day: number of patients: 2
- SAQ 5th question, 1-2 times per week: % of patients: (26.38%)
- SAQ 5th question, 1-2 times per week: number of patients: 460
- SAQ 5th question, 1-3 times per day: % of patients: (11.53%)
- SAQ 5th question, 1-3 times per day: number of patients: 201
- SAQ 5th question, <1 time per week: % of patients: (28.10%)
- SAQ 5th question, <1 time per week: number of patients: 490
- SAQ 5th question, No onset: % of patients: (4.30%)
- SAQ 5th question, No onset: number of patients: 75
- SAQ 5th question, ≧3 times per week: % of patients: (28.84%)
- SAQ 5th question, ≧3 times per week: number of patients: 503
- SAQ 5th question, ≧4 times per day: % of patients: (0.86%)
- SAQ 5th question, ≧4 times per day: number of patients: 15
- SAQ 6th question, Dissatisfied: % of patients: (0.17%)
- SAQ 6th question, Dissatisfied: number of patients: 3
- SAQ 6th question, Highly satisfied: % of patients: (21.62%)
- SAQ 6th question, Highly satisfied: number of patients: 377
- SAQ 6th question, Mostly dissatisfied: % of patients: (1.95%)
- SAQ 6th question, Mostly dissatisfied: number of patients: 34
- SAQ 6th question, Mostly satisfied: % of patients: (55.73%)
- SAQ 6th question, Mostly satisfied: number of patients: 972
- SAQ 6th question, Partly satisfied: % of patients: (20.53%)
- SAQ 6th question, Partly satisfied: number of patients: 358
- SAQ 7th question, Dissatisfied: % of patients: (0.11%)
- SAQ 7th question, Dissatisfied: number of patients: 2
- SAQ 7th question, Highly satisfied: % of patients: (25.03%)
- SAQ 7th question, Highly satisfied: number of patients: 436
- SAQ 7th question, Mostly dissatisfied: % of patients: (1.32%)
- SAQ 7th question, Mostly dissatisfied: number of patients: 23
- SAQ 7th question, Mostly satisfied: % of patients: (58.21%)
- SAQ 7th question, Mostly satisfied: number of patients: 1014
- SAQ 7th question, Partly satisfied: % of patients: (15.33%)
- SAQ 7th question, Partly satisfied: number of patients: 267
- SAQ Question 1-1 Mildly limited, number of patients: 29
- SAQ Question 1-1 Mildly limited, percent of patients: (1.66%)
- SAQ Question 1-1 Moderately limited, number of patients: 4
- SAQ Question 1-1 Moderately limited, percent of patients: (0.23%)
- SAQ Question 1-1 Not limited, number of patients: 1638
- SAQ Question 1-1 Not limited, percent of patients: (93.92%)
- SAQ Question 1-1 Other reasons, number of patients: 3
- SAQ Question 1-1 Other reasons, percent of patients: (0.17%)
- SAQ Question 1-1 Severely limited, number of patients: 1
- SAQ Question 1-1 Severely limited, percent of patients: (0.06%)
- SAQ Question 1-1 Slightly limited, number of patients: 69
- SAQ Question 1-1 Slightly limited, percent of patients: (3.96%)
- SAQ Question 1-2 Mildly limited, number of patients: 27
- SAQ Question 1-2 Mildly limited, percent of patients: (1.55%)
- SAQ Question 1-2 Moderately limited, number of patients: 8
- SAQ Question 1-2 Moderately limited, percent of patients: (0.46%)
- SAQ Question 1-2 Not limited, number of patients: 1615
- SAQ Question 1-2 Not limited, percent of patients: (92.60%)
- SAQ Question 1-2 Other reasons, number of patients: 6
- SAQ Question 1-2 Other reasons, percent of patients: (0.34%)
- SAQ Question 1-2 Severely limited, number of patients: 1
- SAQ Question 1-2 Severely limited, percent of patients: (0.06%)
- SAQ Question 1-2 Slightly limited, number of patients: 87
- SAQ Question 1-2 Slightly limited, percent of patients: (4.99%)
- SAQ Question 1-6: Mildly limited, patients (%): (16.49%)
- SAQ Question 1-6: Moderately limited, patients (%): (11.78%)
- SAQ Question 1-6: Not limited, patients (%): (34.20%)
- SAQ Question 1-6: Other reasons, patients (%): (0.98%)
- SAQ Question 1-6: Severely limited, patients (%): (3.85%)
- SAQ Question 1-6: Slightly limited, patients (%): (32.70%)
- SAQ Question 1-7: Mildly limited, patients (%): (21.23%)
- SAQ Question 1-7: Moderately limited, patients (%): (13.48%)
- SAQ Question 1-7: Not limited, patients (%): (14.52%)
- SAQ Question 1-7: Other reasons, patients (%): (3.53%)
- SAQ Question 1-7: Severely limited, patients (%): (15.33%)
- SAQ Question 1-7: Slightly limited, patients (%): (31.93%)
